Experimental data published in patent US20020028938A1, “Prostaglandin endoperoxide H synthase biosynthesis inhibitors” (priority 1997, published 2002).

What was measured:
[1] = target: T1, recombinant human Cox-2 (r-hu Cox-2) (Homo sapiens, UniProt P35354); test: Recombinant human PGHS-2 enzyme assay (RHUCX2); format: biochemical; settings: for IC50: read-out: RHUCX2 IC50 (parenthetical value)
T1 construct: made in house; host or cells: baculovirus/Sf9 insect cells (microsomes)
T1 sequence (P35354 18-604): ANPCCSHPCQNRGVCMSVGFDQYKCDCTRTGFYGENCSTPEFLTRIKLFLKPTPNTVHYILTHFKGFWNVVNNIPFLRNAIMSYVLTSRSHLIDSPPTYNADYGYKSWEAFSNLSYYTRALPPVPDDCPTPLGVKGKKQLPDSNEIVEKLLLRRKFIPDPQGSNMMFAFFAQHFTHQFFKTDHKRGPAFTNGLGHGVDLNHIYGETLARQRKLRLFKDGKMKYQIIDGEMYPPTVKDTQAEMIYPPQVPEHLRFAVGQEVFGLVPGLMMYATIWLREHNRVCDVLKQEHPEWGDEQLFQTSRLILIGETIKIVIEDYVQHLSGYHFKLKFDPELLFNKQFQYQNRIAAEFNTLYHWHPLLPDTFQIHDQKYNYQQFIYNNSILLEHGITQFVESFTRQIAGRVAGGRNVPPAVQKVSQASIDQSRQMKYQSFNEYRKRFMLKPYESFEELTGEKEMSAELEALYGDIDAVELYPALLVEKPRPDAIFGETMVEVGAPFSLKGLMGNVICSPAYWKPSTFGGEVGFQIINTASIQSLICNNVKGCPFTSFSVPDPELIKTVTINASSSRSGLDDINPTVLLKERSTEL
Experimental: (§1) To compare the mean responses of the treatment groups, analysis of variance was applied. Percent inhibition values were determined by comparing the individual treatment mean values to the mean of the control group. Linear regression was used to estimate IC50's/ED50's in appropriate assays.
(§2) EIA reagents for prostaglandin determination were purchased from Perseptive Diagnostics, (Cambridge, Mass.). Prostaglandin E2 (PGE2) levels in lavage fluids were determined after the samples were dried under nitrogen and reconstituted with assay buffer. PGE2 levels in enzyme assays or cell culture media were measured against standards prepared in the same milieu. The immunoassays were conducted as recommended by the manufacturer. The EIA was conducted in 96 well microtiter plates (Nunc Roskilde, Denmark) and optical density was measured using a microplate reader (Vmax, Molecular Devices Corp., Menlo Park, Calif.).
(§3) Inhibition of prostaglandin biosynthesis in vitro was evaluated using recombinant human Cox-1 (r-hu Cox1) and Cox-2 (r-hu Cox-2) enzyme assays. […] The reaction was allowed to run for 2.5 minutes at room temperature prior to quenching with HCl and neutralization with NaOH. PGE2 production in the presence and absence of the drug was determined by EIA analysis. The EIA was conducted in 96 well microtiter plates (Nunc Roskilde, Denmark) and optical density was measured using a microplate reader (Vmax, Molecular Devices Corp., Menlo Park, Calif.). EIA reagents for prostaglandin determination were purchased from Perseptive Diagnostics (Cambridge, Mass.). PGE2 levels were measured against standards prepared in the same milieu. The immunoassays were conducted as recommended by the manufacturer.

[2] = target: T2, recombinant human Cox-1 (r-hu Cox1) (Homo sapiens, UniProt P23219); test: Recombinant human PGHS-1 enzyme assay (RHUCX1); format: biochemical; settings: read-out: RHUCX1 % Inh. at Dose
T2 construct: made in house; host or cells: baculovirus/Sf9 insect cells (microsomes)
Experimental: as §1, §2, §3

[3] = read-out: RHUCX2 % Inh. at Dose

T2 sequence (P23219 24-599): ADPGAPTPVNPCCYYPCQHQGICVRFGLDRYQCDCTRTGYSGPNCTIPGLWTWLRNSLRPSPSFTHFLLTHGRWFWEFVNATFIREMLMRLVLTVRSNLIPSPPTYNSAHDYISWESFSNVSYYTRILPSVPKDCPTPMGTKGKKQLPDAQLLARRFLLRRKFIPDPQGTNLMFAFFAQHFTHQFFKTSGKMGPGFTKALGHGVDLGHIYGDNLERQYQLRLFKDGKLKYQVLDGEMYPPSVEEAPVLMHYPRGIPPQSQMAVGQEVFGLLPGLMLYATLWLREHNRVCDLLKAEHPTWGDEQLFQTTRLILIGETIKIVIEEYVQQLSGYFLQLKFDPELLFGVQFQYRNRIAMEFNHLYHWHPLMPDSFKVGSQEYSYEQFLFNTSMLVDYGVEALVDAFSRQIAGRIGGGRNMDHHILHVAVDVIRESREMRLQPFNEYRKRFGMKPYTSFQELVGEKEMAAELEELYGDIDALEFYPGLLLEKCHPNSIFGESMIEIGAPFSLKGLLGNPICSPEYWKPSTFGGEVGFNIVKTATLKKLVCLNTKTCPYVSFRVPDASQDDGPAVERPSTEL

SMILES: CS(=O)(=O)c1ccc(-c2cnn(CC(F)(F)F)c(=O)c2Oc2cccnc2)cc1 [Example 265, 2-(2,2,2-Trifluoroethyl)-4-(3-pyridyloxy)-5-[4-(methylsulfonyl)phenyl]-3(2H)-pyridazinone]
- inhibition at 0.1 µM [1, 3]: 33%
- inhibition at 1 µM [1, 3]: 48%
- inhibition at 10 µM [1, 3]: 53%
- melting point: 191 to 193 °C
- inhibition at 100 µM [2]: 8%

SMILES: NS(=O)(=O)c1ccc(-c2cnn(Cc3ccc(F)cc3F)c(=O)c2-c2ccc(F)cc2)cc1 [Example 124, 2-(2,4-Difluorobenzl)-4-(4-fluorolphenyl)-5-[4-(aminosulfonyl)phenyl]-3(2H)-pyridazinone]
- IC50 [1]: 44 nM
- melting point: 236 to 238 °C
- inhibition at 100 µM [2]: 26%

SMILES: Cc1ccc(-c2c(-c3ccc(S(C)(=O)=O)cc3)cnn(-c3ccc(F)c(F)c3)c2=O)cc1 [Example 234]
- IC50 [1]: 328 nM
- melting point: 190 to 192 °C
- inhibition at 100 µM [2]: 0%

SMILES: C=CCC(C)COc1c(-c2ccc(S(C)(=O)=O)cc2)cnn(-c2ccc(F)cc2)c1=O (centres unmarked) [Example 434, 2-(4-Fluorophenyl)-4-(2-methyl-4-pentenyl-1-oxy)-5-[4-(methylsulfonyl)phenyl]-3(2H)-pyridazinone]
- IC50 [1]: 81 nM
- melting point: 106 to 107 °C
- inhibition at 100 µM [2]: 0%

SMILES: CC(c1ccc(F)cc1)n1ncc(-c2ccc(S(C)(=O)=O)cc2)c(-c2ccc(F)cc2)c1=O (stereo not drawn) [Example 50, 2-(α-Methyl-4-fluorobenzyl)-4-(4-fluorophenyl)-5-[4-(methylsulfonyl)phenyl]-3(2H)-pyridazinone]
- inhibition at 0.1 µM [1, 3]: 59%
- inhibition at 1 µM [1, 3]: 99%
- melting point: 162 to 164 °C
- inhibition at 100 µM [2]: 23%

SMILES: NS(=O)(=O)c1ccc(-c2cnn(Cc3ccc(F)c(F)c3)c(=O)c2-c2ccc(F)cc2)cc1 [Example 127, 2-(3,4-Difluorobenzyl)-4-(4-fluorophenyl)-5-[4-(aminosulfonyl)phenyl]-3(2H)-pyridazinone]
- inhibition at 0.1 µM [1, 3]: 51%
- inhibition at 1 µM [1, 3]: 74%
- melting point: 253 to 255 °C
- inhibition at 1 µM [2]: 30%
- inhibition at 10 µM [2]: 50%

SMILES: CS(=O)(=O)c1ccc(-c2cnn(Cc3ccc(F)cc3F)c(=O)c2-c2ccc(F)cc2)cc1 [Example 22, 2-(2,4-Difluorobenzyl)-4-(4-fluorophenyl)-5-[4-(methylsulfonyl)phenyl]-3(2H)-pyridazinone]
- inhibition at 0.01 µM [1, 3]: 35%
- inhibition at 0.03 µM ([1]; 0.03 μM, read-out: RHUCX2 % Inh. at Dose): 91%
- melting point: 179 to 182 °C
- inhibition at 100 µM [2]: 25%

SMILES: CS(=O)(=O)c1ccc(-c2cnn(-c3cccc(Cl)c3)c(=O)c2CCc2ccccc2)cc1 [Example 372, 2-(3-Chlorophenyl)-4-(phenethyl)-5-[4-(methylsulfonyl)phenyl]-3(2H)-pyridazinone]
- inhibition at 0.1 µM [1, 3]: 59%
- inhibition at 1 µM [1, 3]: 88%
- inhibition at 10 µM [1, 3]: 94%
- melting point: 142 to 145 °C
- inhibition at 100 µM [2]: 0%

SMILES: CSc1cccc(-n2ncc(-c3ccc(S(C)(=O)=O)cc3)c(-c3ccc(F)cc3)c2=O)c1 [Example 97, 2-[3-(Methylthio)phenyl]-4-(4-fluorophenyl)-5-[4-(methylsulfonyl)phenyl]-3(2H)-pyridazinone]
- IC50 [1]: 332 nM
- melting point: 196 °C
- inhibition at 100 µM [2]: 35%

SMILES: Cc1ccc(-c2c(-c3ccc(S(N)(=O)=O)cc3)cnn(-c3ccc(F)c(F)c3)c2=O)cc1F [Example 386, 2-(3,4-Difluorophenyl)-4-(3-fluoro-4-methylphenyl)-5-[4-(aminosulfonyl)phenyl]-3(2H)-pyridazinone]
- inhibition at 0.01 µM [1, 3]: 58%
- inhibition at 0.1 µM [1, 3]: 63%
- inhibition at 1 µM [1, 3]: 83%
- melting point: 198 to 200 °C
- inhibition at 1 µM [2]: 47%
- inhibition at 100 µM [2]: 58%

SMILES: CC(C)CC(C)Oc1c(-c2ccc(S(C)(=O)=O)cc2)cnn(-c2ccc(F)c(F)c2)c1=O (centres unmarked) [Example 438]
- IC50 [1]: 127 nM
- melting point: 132 to 133 °C
- inhibition at 100 µM [2]: 0%

SMILES: CC(C)CCCOc1c(-c2ccc(S(C)(=O)=O)cc2)cnn(-c2cccc(Cl)c2)c1=O [Example 413]
- IC50 [1]: 110 nM
- melting point: 139 to 140 °C
- inhibition at 100 µM [2]: 0%

SMILES: CC(C)=CCCOc1c(-c2ccc(S(C)(=O)=O)cc2)cnn(-c2cccc(Cl)c2)c1=O [Example 426, 2-(3-Chlorophenyl)-4-(4-methyl-3-pentenyloxy)-5-[4-(methylsulfonyl)phenyl]-3(2H)-pyridaznone]
- IC50 [1]: 57 nM
- melting point: 110 to 111 °C
- inhibition at 100 µM [2]: 1%

SMILES: CC(C)CCCc1c(-c2ccc(S(C)(=O)=O)cc2)cnn(-c2ccc(F)c(F)c2)c1=O [Example 444, 2-(3,4-Difluorophenyl)-4-(4-methylpentyl)-5-[4-(methylsulfonyl)phenyl]-3(2H)-pyridazinone]
- inhibition at 0.1 µM [1, 3]: 62%
- inhibition at 1 µM [1, 3]: 83%
- inhibition at 10 µM [1, 3]: 14%
- melting point: 111 to 113 °C
- inhibition at 100 µM [2]: 0%

SMILES: CS(=O)(=O)c1ccc(-c2cnn(-c3ccc(F)c(F)c3)c(=O)c2C#Cc2ccccc2)cc1 [Example 254, 2-(3,4-Difluorophenyl)-4-(phenylethynyl)-5-[4-(methylsulfonyl)phenyl]-3(2H)-pyridazinone]
- inhibition at 0.1 µM [1, 3]: 48%
- inhibition at 1 µM [1, 3]: 84%
- melting point: 211 to 213 °C
- inhibition at 100 µM [2]: 7%

SMILES: NS(=O)(=O)c1ccc(-c2cnn(Cc3ccc(F)cc3)c(=O)c2-c2ccc(F)cc2)cc1 [Example 150, 2-(4-Fluorobenzyl)-4-(4-fluorophenyl)-5-[4-(aminosulfonyl)phenyl]-3(2H)-pyridazinone]
- inhibition at 0.1 µM [1, 3]: 100%
- melting point: 237 to 239 °C
- inhibition at 10 µM [2]: 39%
- inhibition at 100 µM [2]: 56%

SMILES: CS(=O)(=O)c1ccc(-c2cnn(-c3cccc(Cl)c3)c(=O)c2Oc2cccc(F)c2)cc1 [Example 411, 2-(3-Chlorophenyl)-4-(3-fluorophenoxy)-5-[4-(methylsulfonyl)phenyl]-3(2H)-pyridazinone]
- IC50 [1]: 9 nM
- melting point: 178 to 180 °C
- inhibition at 1 µM [2]: 81%
- inhibition at 10 µM [2]: 96%

SMILES: CS(=O)(=O)c1ccc(-c2cnn(-c3ccc(F)c(F)c3)c(=O)c2Oc2ccc(Cl)cc2)cc1 [Example 281, 2-(3,4-Difluorophenyl)-4-(4-chlorophenoxy)-5-[4-(methylsulfonyl)phenyl]-3(2H)-pyridazinone]
- inhibition at 0.01 µM [1, 3]: 47%
- inhibition at 0.1 µM [1, 3]: 52%
- inhibition at 1 µM [1, 3]: 71%
- melting point: 192 to 194 °C
- inhibition at 100 µM [2]: 7%

SMILES: CC1(n2ncc(-c3ccc(S(C)(=O)=O)cc3)c(-c3ccc(F)cc3)c2=O)CCCC1 [Example 134]
- IC50 [1]: 53 nM
- melting point: 107 to 110 °C
- inhibition at 10 µM [2]: 35%
- inhibition at 100 µM [2]: 54%

SMILES: CS(=O)(=O)c1ccc(-c2cnn(C3CCC3)c(=O)c2-c2ccc(F)cc2)cc1 [Example 122, 2-Cyclobutyl-4-(4-fluorophenyl)-5-[4-(methylsulfonyl)phenyl]-3(2H)-pyridazinone]
- IC50 [1]: 285 nM
- melting point: 202 to 203 °C
- inhibition at 100 µM [2]: 1%

SMILES: CS(=O)(=O)c1ccc(-c2cnn(Cc3c(F)c(F)c(F)c(F)c3F)c(=O)c2-c2ccc(F)cc2)cc1 [Example 45, 2-(2,3,4,5,6-Pentafluorobenzyl)-4-(4-fluorophenyl)-5-[4-(methylsulfonyl)phenyl]-3(2H)-pyridazinone]
- inhibition at 0.1 µM [1, 3]: 63%
- inhibition at 1 µM [1, 3]: 85%
- melting point: 115 to 116 °C
- inhibition at 100 µM [2]: 5%

SMILES: CC(C)CCCOc1c(-c2ccc(S(C)(=O)=O)cc2)cnn(-c2ccc(F)c(F)c2)c1=O [Example 437, 2-(3,4-Difluorophenyl)-4-(4-methyl-1-pentyloxy)-5-[4-(methylsulfonyl)phenyl]-3(21)-pyridazinone]
- IC50 [1]: 124 nM
- melting point: 98 to 99 °C
- inhibition at 100 µM [2]: 16%
